Literature values as cited in patent US20140053594A1, “THERMALLY ACTIVATED PRESSURE BOOSTER FOR HEAT PUMPING AND POWER GENERATION” (priority 2011, published 2014).

Key:
rat [1] = details: oral
rat [2] = details: intraperitoneal
rat [3] = details: intravenous
RBT = details: intraperitoneal, rabbit
rat [4] = test system: rat

SMILES	ORL-RAT LD50 (rat [1])	IPR-RAT LD50 (rat [2]) [mg/kg]	IVN-RAT LD50 (rat [3]) [mg/kg]	IPR-RBT LD50 (RBT)	Acute oral toxicity (LD50) (Mouse)	Acute dermal toxicity (LD50) (rat [4])
CN(C)C=O [DMF, dimethylformamide]	ORL-RAT LD50 2800 mg kg^−1	1400	2000	LD50 1000 mg kg^−1		
C[S+](C)[O-] [DMSO, dimethyl sulfoxide]					7920 mg/kg [Mouse]	40000 mg/kg [Rat]
